Where “and” joins values, the source holds several entries; their conditions need not be identical. Identical values can stand only once.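 Interpolation was linear, between the two tested concentrations surrounding the appropriate level; five concentrations were tested over 48 hours in 96-well plates. GI50 marks 50% less growth. At the TGI there is no net growth.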
Columns and labels:
Assay in all cases: NCI tumour cell line growth inhibition, 48 h
A498 renal = tested on: A498 renal
ACHN renal = tested on: ACHN renal
COLO 205 colon = tested on: COLO 205 colon
HOP-92 NSCLC = tested on: HOP-92 NSCLC
MALME-3M melanoma = tested on: MALME-3M melanoma
MDA-MB-231 breast = tested on: MDA-MB-231 breast
OVCAR-5 ovarian = tested on: OVCAR-5 ovarian
SF-268 CNS = tested on: SF-268 CNS
U251 CNS = tested on: U251 CNS
TK-10 renal = tested on: TK-10 renal

C=CCOc1cc(NC(=S)c2ccoc2C)ccc1OC
TGI (A498 renal): > 100 µM | TGI (ACHN renal): > 100 µM | TGI (COLO 205 colon): > 100 µM | TGI (HOP-92 NSCLC): > 100 µM | TGI (MALME-3M melanoma): > 100 µM | TGI (MDA-MB-231 breast): > 100 µM | TGI (OVCAR-5 ovarian): > 100 µM | TGI (SF-268 CNS): > 100 µM | TGI (U251 CNS): > 100 µM

N=C1C(c2nc3ccccc3s2)=C(O)CN1c1ccc(F)c(Cl)c1
GI50 (A498 renal): 31.2 µM | TGI (A498 renal): 73.2 µM | GI50 (ACHN renal): 17.4 µM | TGI (ACHN renal): 57.8 µM | GI50 (COLO 205 colon): > 100 µM | TGI (COLO 205 colon): > 100 µM | GI50 (HOP-92 NSCLC): 12 µM | TGI (HOP-92 NSCLC): 37.5 µM | GI50 (MDA-MB-231 breast): 15.9 µM | TGI (MDA-MB-231 breast): 47.3 µM | GI50 (OVCAR-5 ovarian): 35.9 µM | TGI (OVCAR-5 ovarian): > 100 µM | GI50 (SF-268 CNS): 22 µM | TGI (SF-268 CNS): > 100 µM | GI50 (TK-10 renal): 22.7 µM | TGI (TK-10 renal): > 100 µM | GI50 (U251 CNS): 5.76 µM | TGI (U251 CNS): 23.2 µM

COc1ccc(-c2nn(-c3cccc(Cl)c3)cc2-c2cc(-c3cccs3)[nH]c(=S)n2)cc1
GI50 (A498 renal): 3.01 µM | TGI (A498 renal): 17 µM | GI50 (ACHN renal): 4.05 µM | TGI (ACHN renal): > 100 µM | GI50 (COLO 205 colon): 2.35 µM | TGI (COLO 205 colon): 5.59 µM | GI50 (HOP-92 NSCLC): 2.2 µM | TGI (HOP-92 NSCLC): 10.8 µM | GI50 (MALME-3M melanoma): 3.49 µM | TGI (MALME-3M melanoma): 15.8 µM | GI50 (MDA-MB-231 breast): 3.52 µM | TGI (MDA-MB-231 breast): 26 µM | GI50 (OVCAR-5 ovarian): 6.38 µM | TGI (OVCAR-5 ovarian): > 100 µM | GI50 (SF-268 CNS): 4.52 µM | TGI (SF-268 CNS): 73.6 µM | GI50 (TK-10 renal): 4.55 µM | TGI (TK-10 renal): 32.8 µM | GI50 (U251 CNS): 2.6 µM | TGI (U251 CNS): 12.4 µM

CC[C@@H]1c2c(C#N)ncn2-c2cnc(Nc3ccc(C(=O)NC4CCN(C5CCN(CC6CC6)CC5)CC4)cc3OC)nc2N1C1CCCC1
GI50 (A498 renal): 0.174 µM and 0.308 µM | TGI (A498 renal): 1.17 µM and 1.57 µM | GI50 (ACHN renal): 0.625 µM | TGI (ACHN renal): 1.93 µM | GI50 (HOP-92 NSCLC): 0.0777 µM | TGI (HOP-92 NSCLC): 1.83 µM | GI50 (MALME-3M melanoma): 0.0853 µM | TGI (MALME-3M melanoma): 1.85 µM | GI50 (MDA-MB-231 breast): 0.0631 µM and 0.0382 µM | TGI (MDA-MB-231 breast): 1.31 µM and 0.219 µM | GI50 (OVCAR-5 ovarian): 0.0449 µM | TGI (OVCAR-5 ovarian): 1.39 µM | GI50 (SF-268 CNS): 0.0642 µM | TGI (SF-268 CNS): 1.77 µM | GI50 (TK-10 renal): 1.03 µM | TGI (TK-10 renal): 2.23 µM | GI50 (U251 CNS): 0.042 µM | TGI (U251 CNS): 1.48 µM

O=c1[nH]c(=O)c2cn[nH]c2[nH]1
GI50 (A498 renal): > 100 µM | TGI (A498 renal): > 100 µM | GI50 (ACHN renal): > 100 µM | TGI (ACHN renal): > 100 µM | GI50 (COLO 205 colon): > 100 µM | TGI (COLO 205 colon): > 100 µM | GI50 (HOP-92 NSCLC): > 100 µM | TGI (HOP-92 NSCLC): > 100 µM | GI50 (MALME-3M melanoma): > 100 µM | TGI (MALME-3M melanoma): > 100 µM | GI50 (MDA-MB-231 breast): > 100 µM | TGI (MDA-MB-231 breast): > 100 µM | GI50 (OVCAR-5 ovarian): > 100 µM | TGI (OVCAR-5 ovarian): > 100 µM | GI50 (SF-268 CNS): > 100 µM | TGI (SF-268 CNS): > 100 µM | GI50 (TK-10 renal): > 100 µM | TGI (TK-10 renal): > 100 µM | GI50 (U251 CNS): > 100 µM | TGI (U251 CNS): > 100 µM
